Patent US20140107109A1, “AMINO-DIHYDROTHIAZINE AND AMINO-DIOXIDO DIHYDROTHIAZINE COMPOUNDS AS BETA-SECRETASE ANTAGONISTS AND METHODS OF USE” (Amgen Inc., priority 2012, published 2014)

Tests used:
Cathepsin D (Cat D) = biological target: T1, Cathepsin D (Cat D) (Homo sapiens, UniProt P07339); assay: In vitro enzymatic Cathepsin D (Cat D) FRET assay; type: biochemical; settings: read-out: CatD IC50
T1 construct: Recombinant Cat D was expressed in CHO cells; made in house; host or cells: CHO cells
Method: In Vitro Enzymatic Cathepsin D (Cat D) FRET (Fluorescence Resonance Energy Transfer) Assay Recombinant Cat D was expressed in CHO cells. […] The Cat D enzyme (9 nM) is pre-incubated for one hour with inhibitors, typically in about 1 uL of DMSO according to a serial dilution, is added thereto. […] The FRET assay is terminated with by addition of Tris buffer, which raises the pH to neutrality, and the fluorescence is determined. The FRET substrate is a peptide with commercially available fluorophore and quencher, on opposite sides of the BACE cleavage site. The Cat D substrate peptide sequence is based on sequence #1 of Table 1 from Gulnik et al. […] Alternatively, a Cat D assay may also be run according to the procedure described in the article, Characterization of new fluorgenic substrates for the rapid and sensitive assay of cathepsin E and cathepsin D, J. Biochem., 125:1137, 1999. In addition, the cathepsin D and cathepsin E assays are described in PCT publication WO2011069934. This WIPO publication describes BACE inhibitor compounds having an amide linker connecting two aromatic groups with extremely poor cathepsin D and/or cathepsin E inhibitory activity (see Table 2). Where available, the in-vitro Cat D FRET assay data for each of the Examples, conducted by the first procedure, is provided.

[1] = biological target: Beta Secretase enzyme (BACE1) (Homo sapiens, UniProt P56817); assay: In vitro enzymatic BACE FRET assay; type: biochemical; settings: average IC50, enzyme assay; read-out: BACE1 FRET assay IC50
Method: In Vitro Enzymatic BACE FRET (Fluorescence Resonance Energy Transfer) Assay (Enzyme Assay Data in the Example Tables I and II)
The assay buffer used in this screen is 0.05 M acetate, pH 4.2, 10% DMSO final, 100 uM genapol (which is a nonionic detergent, below its Critical Micelle Concentration). […] This assay is effectively started by the addition of FRET substrate (50 nM) and the combination is incubated for one hour. The FRET assay is terminated with by addition of Tris buffer, which raises the pH to neutrality, and the fluorescence is determined. The FRET substrate is a peptide with commercially available fluorophore and quencher, on opposite sides of the BACE cleavage site. Proteolytic cleavage of the FRET substrate releases quenching of fluorescence (excitation […] and […]).

[2] = system: Aβ40 in conditioned medium of cells stably expressing Amyloid Precursor Protein (APP); assay: In vitro BACE cell-based assay (HEK cell assay), Aβ40 sandwich ELISA; settings: Homo sapiens, HEK293
Method: In Vitro BACE Cell-Based Assay
The cell-based assay measures inhibition or reduction of Aβ40 in conditioned medium of test compound treated cells expressing amyloid precursor protein.
Cells stably expressing Amyloid Precursor Protein (APP) were plated at a density of 40K cells/well in 96 well plates (Costar). The cells were cultivated for 24 hours at 37C. and 5% CO2 in DMEM supplemented with 10% FBS. The test compounds were then added to cells in 10-point dose response concentrations with the starting concentration being either 100 μM or 10 μM. The compounds were diluted from stock solutions in DMSO and the final DMSO concentration of the test compounds on cells was 0.1%. After 24 h of incubation with the test compounds the supernatant conditioned media was collected and the Aβ 40 levels were determined using a sandwich ELISA. The IC50 of the compound was calculated from the percent of control or percent inhibition of Aβ 40 as a function of the concentration of the test compound.
The sandwich ELISA to detect Aβ 40 was performed in 96 well microtiter plates, which were pre-treated with goat anti-rabbit IgG (Pierce). The capture and detecting antibody pair that were used to detect Aβ 40 from cell supernatants were affinity purified pAb40 (Biosource) and biotinylated 6E10 (Signet Labs Inc.), respectively. The optimal concentration for the pAb40 antibody was 3 μg/ml in Superblock/TBS (Pierce) that was supplemented with 0.05% Tween 20 (Sigma). Optimal concentration for the detection antibody 6E10-biotinylated was 0.5 μg/ml in Superblock/TBS (Pierce) that had been supplemented with 2% normal goat serum and 2% normal mouse serum.
Cellular supernatants were incubated with the capture antibody for 3 h at 4° C., followed by 3 wash steps in TBS-tween (0.05%). The detecting antibody incubation was for 2 h at 4° C., again followed by the wash steps as described previously. The final readout of the ELISA is Time-Resolved Fluorescence (counts per minute) using Delfia reagents Streptavidin-Europium and Enhancement solutions (Perkin Elmer) and the Victor 2 multilabel counter (Perkin Elmer).

T1 sequence (P07339 65-412, species assumed): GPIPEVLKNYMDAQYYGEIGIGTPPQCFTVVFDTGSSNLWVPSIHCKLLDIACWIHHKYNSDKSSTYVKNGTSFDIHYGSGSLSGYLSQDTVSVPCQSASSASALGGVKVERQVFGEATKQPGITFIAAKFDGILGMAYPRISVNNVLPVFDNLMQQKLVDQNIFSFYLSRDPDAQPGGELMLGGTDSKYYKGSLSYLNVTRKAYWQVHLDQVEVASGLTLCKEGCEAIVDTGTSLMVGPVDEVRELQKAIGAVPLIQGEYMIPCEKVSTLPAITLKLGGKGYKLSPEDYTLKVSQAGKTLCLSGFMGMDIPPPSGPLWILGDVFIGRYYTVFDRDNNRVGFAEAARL
Sequence of Beta Secretase enzyme (BACE1) (P56817 46-501): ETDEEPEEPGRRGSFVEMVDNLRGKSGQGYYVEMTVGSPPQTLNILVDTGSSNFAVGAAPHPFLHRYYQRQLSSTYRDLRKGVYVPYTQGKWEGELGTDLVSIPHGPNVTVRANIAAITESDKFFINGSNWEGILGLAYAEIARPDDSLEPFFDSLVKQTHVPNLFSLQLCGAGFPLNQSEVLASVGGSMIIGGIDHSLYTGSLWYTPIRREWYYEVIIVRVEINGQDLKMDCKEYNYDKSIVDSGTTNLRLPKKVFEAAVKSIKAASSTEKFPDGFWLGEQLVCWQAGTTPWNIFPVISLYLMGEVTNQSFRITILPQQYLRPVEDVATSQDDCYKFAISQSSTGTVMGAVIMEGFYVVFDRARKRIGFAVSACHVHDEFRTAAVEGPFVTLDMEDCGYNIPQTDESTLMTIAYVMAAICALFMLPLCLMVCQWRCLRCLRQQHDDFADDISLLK

IC50 (Cathepsin D (Cat D)) [µM] | IC50 [1] [µM] | IC50 ([2]; Aβ40, 24 h incubation) [µM] | Structure (SMILES) | also measured
> 44.4 | 0.00659 |  | CC1(C)C(N)=N[C@](C)(c2cc(Nc3nccc4nc(C(F)(F)F)cnc34)ccc2F)C(F)S1(=O)=O (stereo partly drawn) [Example 227, N-(3-((3R)-5-amino-2-fluoro-3,6,6-trimethyl-1,1-dioxido-3,6-dihydro-2H-1,4-thiazin-3-yl)-4-fluorophenyl)-2-(trifluoromethyl)pyrido[3,4-b]pyrazin-5-amine] | 
 |  |  | CC1(C)C(N)=N[C@]2(c3cc(N)ccc3F)COC[C@@H]2S1(=O)=O [Example 185d, (4aR,7aR)-3-amino-4a-(5-amino-2-fluorophenyl)-2,2-dimethyl-4a,5,7,7a-tetrahydro-2H-furo[3,4-b][1,4]thiazine 1,1-dioxide] | IC50 ([2]; average IC50, HEK cells): > 15.6 µM
182 |  | 6.86 | COc1cc(C)ccc1Oc1ccc(F)c([C@]2(C)CS(=O)(=O)C(C)(C)C(N)=N2)c1 [Example 97, (R)-5-amino-3-(2-fluoro-5-(2-methoxy-4-methylphenoxy)phenyl)-3,6,6-trimethyl-3,6-dihydro-2H-1,4-thiazine 1,1-dioxide] | 
204 | 0.1 |  | COc1ccnc(Oc2ccc(F)c([C@]3(C)CS(=O)(=O)C(C)(C)C(N)=N3)c2)c1 [Example 287, (5R)-5-(2-fluoro-5-((4-methoxy-2-pyridinyl)oxy)phenyl)-2,2,5-trimethyl-5,6-dihydro-2H-1,4-thiazin-3-amine 1,1-dioxide] | 
 |  |  | CC1(C)C(N)=N[C@@]2(c3cc(N)ccc3F)COC[C@H]2S1(=O)=O [Example 185c, (4aS,7aS)-3-amino-4a-(5-amino-2-fluorophenyl)-2,2-dimethyl-4a,5,7,7a-tetrahydro-2H-furo[3,4-b][1,4]thiazine 1,1-dioxide] | IC50 ([2]; average IC50, HEK cells): > 15.6 µM
58.9 | 0.00328 |  | CC1(C)C(N)=N[C@](C)(c2cc(Nc3ncnc4cc(Cl)cnc34)ccc2F)C(F)S1(=O)=O (stereo partly drawn) [Example 228, N-(3-((3R)-5-amino-2-fluoro-3,6,6-trimethyl-1,1-dioxido-3,6-dihydro-2H-1,4-thiazin-3-yl)-4-fluorophenyl)-7-chloropyrido[3,2-d]pyrimidin-4-amine] | 
81.1 | 0.00227 |  | CC1(C)C(N)=N[C@](C)(c2cc(NCc3nn(C(F)F)cc3Cl)ccc2F)CS1(=O)=O [Example 107, (R)-5-amino-3-(5-(((4-chloro-1-(difluoromethyl)-1H-pyrazol-3-yl)methyl)amino)-2-fluorophenyl)-3,6,6-trimethyl-3,6-dihydro-2H-1,4-thiazine 1,1-dioxide] | 
> 400 |  | 0.0022 | COc1cnc(C(=O)Nc2ccc(F)c([C@]3(C)CS(=O)(=O)C(C)(C)C(N)=N3)c2)cn1 [Example 17, N-(3-((3R)-5-amino-3,6,6-trimethyl-1,1-dioxido-3,6-dihydro-2H-1,4-thiazin-3-yl)-4-fluorophenyl)-5-methoxy-2-pyrazinecarboxamide] | 
528 | 3.53 |  | NC1=N[C@@](CF)(c2cc(Nc3nccc4cc(Cl)cnc34)ccc2F)CS(=O)(=O)C12CCC2 [Example 244, N-(3-((7R)-9-amino-7-(fluoromethyl)-5,5-dioxido-5-thia-8-azaspiro[3.5]non-8-en-7-yl)-4-fluorophenyl)-3-chloro-1,7-naphthyridin-8-amine] | 
240 |  | 0.0014 | CC1(C)C(N)=N[C@](C)(c2cc(NC(=O)c3ccc(Cl)cn3)ccc2F)CS1(=O)=O [Example 19, N-(3-((3R)-5-amino-3,6,6-trimethyl-1,1-dioxido-3,6-dihydro-2H-1,4-thiazin-3-yl)-4-fluorophenyl)-5-chloro-2-pyridinecarboxamide] | 
 |  |  | CC1(C)C(N)=N[C@@]2(c3cc(Br)ccc3F)COC[C@H]2S1(=O)=O [Example 185a, (4aS,7aS)-3-amino-4a-(5-bromo-2-fluorophenyl)-2,2-dimethyl-4a,5,7,7a-tetrahydro-2H-furo[3,4-b][1,4]thiazine 1,1-dioxide] | IC50 ([2]; average IC50, cell assay): > 15.6 µM
 |  |  | CC1(C)C(N)=N[C@](CF)(c2cc(Nc3nncc4cc(Cl)ccc34)ccc2F)CS1(=O)=O [Example 450, N-(3-((3S)-5-amino-3-(fluoromethyl)-6,6-dimethyl-1,1-dioxido-3,6-dihydro-2H-1,4-thiazin-3-yl)-4-fluorophenyl)-6-chloro-1-phthalazinamine] | IC50 ([2]; average IC50, cell assay): 0.7 µM
30 | 4.05 |  | C[C@@]1(c2cc(Br)ccc2F)CS(=O)(=O)C2(CCC2)C(N)=N1 [Example 113, (R)-9-amino-7-(5-bromo-2-fluorophenyl)-7-methyl-5-thia-8-azaspiro[3.5]non-8-ene 5,5-dioxide] | 
 |  | 0.007 | COc1cnc(C(=O)Nc2ccc(F)c([C@]3(C)CSCC(N)=N3)c2)cn1 [Example 43, (R)—N-(3-(5-amino-3-methyl-3,6-dihydro-2H-1,4-thiazin-3-yl)-4-fluorophenyl)-5-methoxypyrazine-2-carboxamide] | 
184 |  |  | CC1(C)C(N)=N[C@](C)(c2cc(OCc3ccccc3)ccc2F)CS1(=O)=O [Example 301, (5R)-5-(5-(benzyloxy)-2-fluorophenyl)-2,2,5-trimethyl-5,6-dihydro-2H-1,4-thiazin-3-amine 1,1-dioxide] | IC50 ([2]; average IC50, HEK cell assay): 1.06 µM
 |  |  | CC1(C)C(N)=N[C@]2(c3cc(Br)ccc3F)COC[C@@H]2S1(=O)=O [Example 185b, (4aR,7aR)-3-amino-4a-(5-bromo-2-fluorophenyl)-2,2-dimethyl-4a,5,7,7a-tetrahydro-2H-furo[3,4-b][1,4]thiazine 1,1-dioxide] | IC50 ([2]; average IC50, cell assay): > 15.6 µM
 |  | 0.0067 | COc1cnc2c(Nc3cnc(F)c([C@]4(C)CS(=O)(=O)C(C)(C)C(N)=N4)c3)nccc2c1 [Example 66, N-(5-((3R)-5-amino-3,6,6-trimethyl-1,1-dioxido-3,6-dihydro-2H-1,4-thiazin-3-yl)-6-fluoro-3-pyridinyl)-3-methoxy-1,7-naphthyridin-8-amine] | 
 |  | > 10 | COc1cnc(C(=O)Nc2ccc(F)c(C3(C(F)(F)F)CS(=O)(=O)C(C)(C)C(N)=N3)c2)cn1 (stereo in doubt) [Example 34, N-(3-((3R)-5-amino-6,6-dimethyl-1,1-dioxido-3-(trifluoromethyl)-3,6-dihydro-2H-1,4-thiazin-3-yl)-4-fluorophenyl)-5-methoxy-2-pyrazinecarboxamide] | 
87.9 |  |  | CC1(C)C(N)=N[C@@]2(c3cc(Nc4nccc5cc(Cl)cnc45)ccc3F)C[C@H]2S1(=O)=O [Example 183, (1R,6R)-4-amino-6-(5-((3-chloro-1,7-naphthyridin-8-yl)amino)-2-fluorophenyl)-3,3-dimethyl-2-thia-5-azabicyclo[4.1.0]hept-4-ene 2,2-dioxide] | IC50 ([2]; average IC50, cell assay): 4.74 µM
 |  |  | CC1(C)C(N)=NC2(c3cc(Br)ccc3F)COCC2S1(=O)=O (stereo not shown) [Example 185, 3-amino-4a-(5-bromo-2-fluorophenyl)-2,2-dimethyl-4a,5,7,7a-tetrahydro-2H-furo[3,4-b][1,4]thiazine 1,1-dioxide] | IC50 ([2]; average IC50, cell assay): > 15.6 µM
